Entries after “also recorded” stand apart in the source; their conditions may differ. Where two headings read alike, the source gives them in different places. Square brackets hold non-standard residues; d marks the D form. Ends that are not written are not given here. * marks the point of attachment. Biotin = O=C1N[C@H]2[C@H](CS[C@H]2CCCCC(=O)*)N1; code O = not defined here; Ahx = NCCCCCC(=O)O
What was measured:
[1] = test system: antibodies in TETAQUIN® (anti-TTd antibodies); assay type: binding, human
[2] = test system: antibodies in individual human sera (e.g. serum 034960); test: Tettox ELISA of biotinylated peptides on individual human sera; assay type: binding; details: human serum 034960 diluted 100x
Description: a 96-wells plate (preferably from Euro-Diagnostica, Arnhem, The Netherlands) is coated with streptavidin. The streptavidin coated 96 wells plate is blocked with PBS containing 5% BSA (200 μl/well, 1 h, room temperature). Subsequently, the plate is washed three times with PBS containing 0.05% TWEEN20® (polysorbate 20). A biotinylated peptide is coated by 1 h incubation at room temperature with 100 μl/well of a 2 μg/ml solution of the biotinylated peptide in PBS containing 1% BSA. The plate is washed three times with PBS containing 0.05% TWEEN20® (polysorbate 20) followed by incubation for 1 h at room temperature with 100 μl serum from […] a human subject as defined above (preferably having a high titer of anti-TTd antibodies) that had been diluted at least 100, 200, 400, 500 or 1000 times and preferably not more than 100,000, 10,000, 7,500, 5,000 or 2,500 times with PBS containing 1% BSA. Then the plate is washed three times with PBS containing 0.05% TWEEN20®(polysorbate 20). Each well is incubated for 1 h at room temperature with a HRP-conjugated IgG antibody (mouse anti-human IgG-HRP monoclonal, clone G18-145, cat no 555788, Becton Dickinson, 100 μl/well of a 1000× dilution in PBS containing 0.05% TWEEN20® (polysorbate 20)) after which the plate is washed three times with PBS containing 0.05% TWEEN20® (polysorbate 20). Development is performed with 2,2′-azino-di-(3-ethylbenzthiazoline sulfonic acid), ABTS+H2O2 1/1000, 100 μl/well. Optical density is measured at 415 nm with a BIO-RAD, model 680, microplate reader. In each plate, preferably a negative contol is included, more preferably at least in triplicate. A preferred negative contol is serum from a human subject without detectable anti-TTd antibodies. Another preferred negative control is a solution of BSA. A peptide according to (ii) above is a peptide according to the invention if it is bound by antibodies in at least 40, 45, 50, 55, 60, 65, 70, 75, 80, 85, 87, 90, 91, 92, 93, 94, 95, 96, 97, 98, 99% most preferably 100% of the tested human serum samples. A peptide is considered to be bound by antibodies in a serum sample if the determined optical density for that particular serum sample is at least 2.0, more preferably 2.5, 3.0, 3.5 or more times higher as compared to the optical density that is determined for the negative control.
Streptavidin coated 96 wells plates (Euro-Diagnostica) were blocked with PBS containing 5% BSA (200 μl/well, 1 h, room temperature). Plates were washed three times with PBS containing 0.05% TWEEN20® (polysorbate 20). Coating of the biotinylated peptides was performed by 1 h incubation at room temperature with 100 μl/well of a 2 μg/ml solution of the biotinylated peptide in PBS containing 1% BSA. Plates were washed three times with PBS containing 0.05% TWEEN20®. Wells were incubated for 1 h at room temperature with either 100 μl TETAQUIN® […] that had been diluted 800× with PBS containing 1% BSA or with 100 μl human serum that had been diluted 100× with PBS containing 1% BSA. Plates were washed three times with PBS containing 0.05% TWEEN20® (polysorbate 20). Each well was incubated for 1 h at room temperature with a HRP-conjugated IgG antibody (mouse anti-human IgG-HRP monoclonal, clone G18-145, cat no 555788, Becton Dickinson, 100 μl/well of a 1000× dilution in PBS containing 0.05% TWEEN20® (polysorbate 20)). Plates were washed three times with PBS containing 0.05% TWEEN20® (polysorbate 20). Development was performed with 2,2′-azino-di-(3-ethylbenzthiazoline sulfonic acid), ABTS+H2O2 1/1000, 100 μl/well. Optical density was measured at 415 nm with a BIO-RAD, model 680, microplate reader.
Thereafter, the inventors tested these 7 peptides on individual sera, because an epitope is needed to which every person makes antibodies.

[3] = Table 6, conservative substitutions scan of […]
[4] = Table 2, length variants of peptide β-32, section 'With linker', […] diluted 800x, OD at 415 nm
[5] = Table 2, length variants of peptide β-32, section 'Without linker' (sequence listed without Z O), […]

| Substance | ELISA OD TETAQUIN ([1]; Table 5, Ala scan of […]) | ELISA OD SERUM 034960 ([2]; Table 5, Ala scan of […]) | other results |
| --- | --- | --- | --- |
| A I G I T E L K K L E S K I N K V F Z O [0942-10] | 1.12 | 1.29 |  |
| F A G I T E L K K L E S K I N K V F Z O [0942-11] | 1.04 | 1.18 |  |
| F I A I T E L K K L E S K I N K V F Z O [0942-12] | 0.65 | 0.23 |  |
| F I G A T E L K K L E S K I N K V F Z O [0942-13] | 0.30 | 0.18 |  |
| F I G I A E L K K L E S K I N K V F Z O [0942-14] | 0.38 | 0.16 |  |
| F I G I S E L K K L E S K I N K V F Z O [0942-32] |  |  | ELISA OD TETAQUIN [1, 3]: 0.83; ELISA OD SERUM 034960 [2, 3]: 0.70 |
| F I G I T A L K K L E S K I N K V F Z O [0942-15] | 1.24 | 1.28 |  |
| F I G I T D L K K L E S K I N K V F Z O [0942-33] |  |  | ELISA OD TETAQUIN [1, 3]: 1.01; ELISA OD SERUM 034960 [2, 3]: 0.95 |
| F I G I T E A K K L E S K I N K V F Z O [0942-16] | 0.90 | 0.91 |  |
| F I G I T E I K K L E S K I N K V F Z O [0942-34] |  |  | ELISA OD TETAQUIN [1, 3]: 0.72; ELISA OD SERUM 034960 [2, 3]: 0.80 |
| F I G I T E L A K L E S K I N K V F Z O [0942-17] | 0.62 | 0.65 |  |
| F I G I T E L K A L E S K I N K V F Z O [0942-18] | 1.06 | 1.22 |  |
| F I G I T E L K K A E S K I N K V F Z O [0942-19] | 0.70 | 0.71 |  |
| F I G I T E L K K I E S K I N K V F Z O [0942-37] |  |  | ELISA OD TETAQUIN [1, 3]: 1.11; ELISA OD SERUM 034960 [2, 3]: 1.14 |
| F I G I T E L K K L A S K I N K V F Z O (FIGITELKKLASKINKVF[Ahx]K; not fully specified (residue 20)) [0942-20] | 0.85 | 0.91 |  |
| F I G I T E L K K L D S K I N K V F Z O (FIGITELKKLDSKINKVF[Ahx]K; not fully specified (residue 20)) [0942-38] |  |  | ELISA OD TETAQUIN [1, 3]: 0.41; ELISA OD SERUM 034960 [2, 3]: 0.37 |
| F I G I T E L K K L E A K I N K V F Z O (FIGITELKKLEAKINKVF[Ahx]K; not fully specified (residue 20)) [0942-21] | 1.27 | 1.48 |  |
| F I G I T E L K K L E S A I N K V F Z O (FIGITELKKLESAINKVF[Ahx]K; not fully specified (residue 20)) [0942-22] | 1.10 | 1.27 |  |

| Substance | ELISA OD TETAQUIN ([1]; Table 5, Ala scan of […]) | ELISA OD SERUM 034960 ([2]; Table 5, Ala scan of […]) | other results |
| --- | --- | --- | --- |
| F I G I T E L K K L E S K A N K V F Z O (FIGITELKKLESKANKVF[Ahx]K; not fully specified (residue 20)) [0942-23] | 0.88 | 1.08 |  |
| F I G I T E L K K L E S K I A K V F Z O (FIGITELKKLESKIAKVF[Ahx]K; not fully specified (residue 20)) [0942-24] | 1.37 | 1.29 |  |
| F I G I T E L K K L E S K I N A V F Z O (FIGITELKKLESKINAVF[Ahx]K; not fully specified (residue 20)) [0942-25] | 1.30 | 1.28 |  |
| F I G I T E L K K L E S K I N K A F Z O (FIGITELKKLESKINKAF[Ahx]K; not fully specified (residue 20)) [0942-26] | 1.24 | 1.39 |  |
| F I G I T E L K K L E S K I N K L F Z O (FIGITELKKLESKINKLF[Ahx]K; not fully specified (residue 20)) [0942-44] |  |  | ELISA OD TETAQUIN [1, 3]: 1.30; ELISA OD SERUM 034960 [2, 3]: 1.47 |
| Q Y I K A N S K F I Z O (QYIKANSKFI-{Ahx-code O}; reading uncertain) [P28] |  |  | OD [1, 4]: 0.2; OD [1, 5]: 0.2 |
| Q Y I K A N S K Z O (QYIKANSK-{Ahx-code O}; reading uncertain) [P36] |  |  | OD [1, 4]: 0.2; OD [1, 5]: 0.2 |
| S K F I G I T E L K K L E S K I Z O (SKFIGITELKKLESKI-{Ahx-code O}; reading uncertain) [P7] |  |  | OD [1, 4]: 1.15; OD [1, 5]: 1.15 |
| S K F I G I T E L K K L E S Z O (SKFIGITELKKLES-{Ahx-code O}; reading uncertain) [P12] |  |  | OD [1, 4]: 0.8; OD [1, 5]: 0.8 |
| S K F I G I T E L K K L Z O (SKFIGITELKKL-{Ahx-code O}; reading uncertain) [P18] |  |  | OD [1, 4]: 0.45; OD [1, 5]: 0.45 |
| S K F I G I T E L K Z O (SKFIGITELK-{Ahx-code O}; reading uncertain) [P25] |  |  | OD [1, 4]: 0.2; OD [1, 5]: 0.2 |
| S K F I G I T E Z O (SKFIGITE-{Ahx-code O}; reading uncertain) [P33] |  |  | OD [1, 4]: 0.2; OD [1, 5]: 0.2 |
| SLTDLGGELCIKIKNEDLTFIAZO [β1] |  |  | ELISA OD, effect of longer spacer and C- versus N-terminal biotinylation [1]: 0.12 |
| T E L K K L E S K I N K V F Z O (TELKKLESKINKVF[Ahx]K(Biotin)) [0925-61] |  |  | OD ([1]; Table 3, further length variants and Lys(formyl) variants, […], neg. control OD 0.30): 0.35 |
| T E L K K L E S K I Z O (TELKKLESKI-{Ahx-code O}; reading uncertain) [P22] |  |  | OD [1, 4]: 0.2; OD [1, 5]: 0.2 |
| T E L K K L E S Z O (TELKKLES-{Ahx-code O}; reading uncertain) [P30] |  |  | OD [1, 4]: 0.2; OD [1, 5]: 0.2 |
| TSYLSITFLRDFWGNPLRYDTEZO [β55] |  |  | binding to TETAQUIN (screen of overlapping 22-mer TTx peptides) ([1]; FIG. 3 (α-chain), FIG. 4 (β-chain)): good binding; also recorded: antibodies present |

From patent publication US9522962B2, “Peptides, conjugates and method for increasing immunogenicity of a vaccine” (Academisch Ziekenhuis Leiden h.o.d.n. LUMC, priority 2010, dated 2016)
